In US12157730B2, “Heteroaryl derivative, method for producing same, and pharmaceutical composition comprising same as effective component” (VORONOI INC., priority 2019, dated 2024):

What follows are compounds tested against T1, Ba/F3 cell EGFR Exon20 ins NPH (Homo sapiens, UniProt P00533, INS773NPH) (assay: Ba/F3 cell proliferation suppression, EGFR Exon20 ins NPH). Conditions: GI50 class; Ba/F3 cell line with NPH inserted at Exon20 of EGFR; 72 hours.
T1 construct: expressed in transfected cells; host or cells: Ba/F3
Format: cell-based
Procedure, shortened: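 Growth suppression determined as GI50 following 72 h exposure across 12 concentrations up to 50 um, with viability by luminescent ATP assay (CellTiter-Glo).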

Compound	Ba/F3 (NPH) Activity
C=CC(=O)Nc1cc(Nc2cc(N3OCC[C@@H]3c3cccc(F)c3F)ncn2)c(OC)cc1N1CCC(N2CC[C@H](N(C)C)C2)CC1 [compound 340, N-(5-((6-((R)-3-(2,3-difluorophenyl)isoxazolidine-2-yl)pyrimidine-4-yl)amino)-2-(4-((S)-3-(dimethylamino)pyrolidine-1-yl)piperidine-1-yl)-4-methoxyphenyl) acrylamide]	A (GI50 < 50 nM)
C=CC(=O)Nc1cc(Nc2cc(N3OCC[C@@H]3c3cccc(OC)c3)ncn2)c(OC)cc1N1CC[C@H](N2CCOCC2)C1 [compound 778, N-(4-methoxy-5-((6-((R)-3-(3-methoxyphenyl)isoxazolidine-2-yl)pyrimidine-4-yl)amino)-2-((S)-3-morpholinopyrolidine-1-yl)phenyl)acrylamide]	B (50 nM ≤ GI50 < 500 nM)
C=CC(=O)Nc1cc(Nc2cc(N3OCC[C@@H]3c3cc(F)cc(F)c3)ncn2)c(OC)cc1N1CC[C@@H](N2CCOCC2)C1 [Example 271, N-(5-((6-((R)-3-(3,5-difluorophenyl)isoxazolidine-2-yl)pyrimidine-4-yl)amino)-4-methoxy-2-((R)-3-morpholinopyrolidine-1-yl)phenyl)acrylamide]	B (50 nM ≤ GI50 < 500 nM)
C=CC(=O)Nc1cc(Nc2cc(N3OCC[C@@H]3c3ccc(Cl)cc3)ncn2)c(OC)cc1N1CCC(N2CCN(CC)CC2)CC1 [Example 254, N-(5-((6-((R)-3-(4-chlorophenyl)isoxazolidine-2-yl)pyrimidine-4-yl)amino)-2-(4-(4-ethylpiperazine-1-yl)piperidine-1-yl)-4-methoxyphenyl) acrylamide]	A (GI50 < 50 nM)
C=CC(=O)Nc1cc(Nc2cc(N3OCC[C@@H]3c3cccc(Cl)c3)ncn2)c(OC)cc1N1CCC(N2CC[C@H](N(C)C)C2)CC1 [compound 508, N-(5-((6-((R)-3-(3-chlorophenyl)isoxazolidine-2-yl)pyrimidine-4-yl)amino)-2-(4-((S)-3-(dimethylamino)pyrolidine-1-yl)piperidine-1-yl)-4-methoxyphenyl) acrylamide]	A (GI50 < 50 nM)
C=CC(=O)Nc1cc(Nc2cc(N3OCC[C@@H]3c3ccc(Cl)c(Cl)c3)ncn2)c(OC)cc1N1CCN(C)CC1 [compound 670, N-(5-((6-((R)-3-(3,4-dichlorophenyl)isoxazolidine-2-yl)pyrimidine-4-yl)amino)-4-methoxy-2-(4-methylpiperazine-1-yl)phenyl)acrylamide]	A (GI50 < 50 nM)
C=CC(=O)Nc1cc(Nc2cc(N3OCC[C@@H]3c3cccc(F)c3Cl)ncn2)c(OC)cc1N1CCC(N2CCN(C3CC3)CC2)CC1 [Example 164, N-(5-((6-((R)-3-(2-chloro-3-fluorophenyl)isoxazolidine-2-yl)pyrimidine-4-yl)amino)-2-(4-(4-cyclopropylpiperazine-1-yl)piperidine-1-yl)-4-methoxyphenyl) acrylamide]	A (GI50 < 50 nM)
C=CC(=O)Nc1cc(Nc2cc(N3OCC[C@@H]3c3cc(F)ccc3F)ncn2)c(OC)cc1N1CC[C@H](N(C)C)C1 [compound 301, N-(5-((6-((R)-3-(2,5-difluorophenyl)isoxazolidine-2-yl)pyrimidine-4-yl)amino)-2-((S)-3-(dimethylamino)pyrolidine-1-yl)-4-methoxyphenyl) acrylamide]	A (GI50 < 50 nM)
C=CC(=O)Nc1cc(Nc2cc(N3OCC[C@@H]3c3cccc(Cl)c3Cl)ncn2)c(OC)cc1N1CCC(N2CCN(CC3CC3)CC2)CC1 [Example 204, N-(2-(4-(4-(cyclopropylmethyl)piperazine-1-yl)piperidine-1-yl)-5-((6-((R)-3-(2,3-dichlorophenyl)isoxazolidine-2-yl)pyrimidine-4-yl)amino)-4-methoxyphenyl) acrylamide]	A (GI50 < 50 nM)
C=CC(=O)Nc1cc(Nc2cc(N3OCC[C@@H]3c3cccc(Cl)c3)ncn2)c(OC)cc1N1CC[C@@H](N(C)C)C1 [compound 469, N-(5-((6-((R)-3-(3-chlorophenyl)isoxazolidine-2-yl)pyrimidine-4-yl)amino)-2-((R)-3-(dimethylamino)pyrolidine-1-yl)-4-methoxyphenyl) acrylamide]	A (GI50 < 50 nM)
C=CC(=O)Nc1cc(Nc2cc(N3OCC[C@@H]3c3ccccc3)ncn2)c(OC)cc1N1CCC(N(C)CCN(C)C)CC1 [compound 735, N-(2-(4-((2-(dimethylamino)ethyl) (methyl)amino)piperidine-1-yl)-4-methoxy-5-((6-((R)-3-phenylisoxazolidine-2-yl)pyrimidine-4-yl)amino)phenyl) acrylamide]	A (GI50 < 50 nM)
C=CC(=O)Nc1cc(Nc2cc(N3OCC[C@@H]3c3ccc(F)c(Cl)c3)ncn2)c(OC)cc1N1CCC(N2C[C@@H]3C[C@H]2CO3)CC1 [compound 716, N-(2-(4-((1S,4S)-2-oxa-5-azabicyclo[2.2.1]heptane-5-yl)piperidine-1-yl)-5-((6-((R)-3-(3-chloro-4-fluorophenyl)isoxazolidine-2-yl)pyrimidine-4-yl)amino)-4-methoxyphenyl) acrylamide]	A (GI50 < 50 nM)
C=CC(=O)Nc1cc(Nc2cc(N3OCC[C@@H]3c3ccc(F)c(F)c3)ncn2)c(OC)cc1N1CCN(CC)CC1 [compound 460, N-(5-((6-((R)-3-(3,4-difluorophenyl)isoxazolidine-2-yl)pyrimidine-4-yl)amino)-2-(4-ethylpiperazine-1-yl)-4-methoxyphenyl) acrylamide]	A (GI50 < 50 nM)
C=CC(=O)Nc1cc(Nc2cc(N3OCC[C@@H]3c3cccc(OC)c3)ncn2)c(OC)cc1N1CC[C@@H](N2CCOCC2)C1 [compound 777, N-(4-methoxy-5-((6-((R)-3-(3-methoxyphenyl)isoxazolidine-2-yl)pyrimidine-4-yl)amino)-2-((R)-3-morpholinopyrolidine-1-yl)phenyl)acrylamide]	B (50 nM ≤ GI50 < 500 nM)
C=CC(=O)Nc1cc(Nc2cc(N3OCC[C@@H]3Cc3cc(F)cc(F)c3)ncn2)c(OC)cc1N1CCC(N2C[C@@H]3C[C@H]2CO3)CC1 [compound 1035, N-(2-(4-((1S,4S)-2-oxa-5-azabicyclo [2.2.1]heptane-5-yl)piperidine-1-yl)-5-((6-((S)-3-(3,5-difluorobenzyl)isoxazolidine-2-yl)pyrimidine-4-yl)amino)-4-methoxyphenyl) acrylamide]	A (GI50 < 50 nM)
C=CC(=O)Nc1cc(Nc2cc(N3OCC[C@@H]3c3cccc(F)c3)ncn2)c(OC)cc1N1CCC(N2CCOCC2)CC1 [Example 38, N-(5-((6-((R)-3-(3-fluorophenyl)isoxazolidine-2-yl)pyrimidine-4-yl)amino)-4-methoxy-2-(4-morpholinopiperidine-1-yl)phenyl) acrylamide]	A (GI50 < 50 nM)
C=CC(=O)Nc1cc(Nc2cc(N3OCC[C@@H]3c3cccc(C(F)(F)F)c3)ncn2)c(OC)cc1N1CC[C@@H](N2CCOCC2)C1 [compound 506, N-(4-methoxy-2-((R)-3-morpholinopyrolidine-1-yl)-5-((6-((R)-3-(3-(trifluoromethyl)phenyl)isoxazolidine-2-yl)pyrimidine-4-yl)amino)phenyl)acrylamide]	A (GI50 < 50 nM)
